The source of these data is patent publication US10239887B2, “Positive allosteric modulators of the muscarinic acetylcholine receptor M4” (Vanderbilt University, priority 2016, dated 2019).

This assay deals with T1, human mAChR M4 (Homo sapiens, UniProt P08173).
T1 sequence (P08173 1-479): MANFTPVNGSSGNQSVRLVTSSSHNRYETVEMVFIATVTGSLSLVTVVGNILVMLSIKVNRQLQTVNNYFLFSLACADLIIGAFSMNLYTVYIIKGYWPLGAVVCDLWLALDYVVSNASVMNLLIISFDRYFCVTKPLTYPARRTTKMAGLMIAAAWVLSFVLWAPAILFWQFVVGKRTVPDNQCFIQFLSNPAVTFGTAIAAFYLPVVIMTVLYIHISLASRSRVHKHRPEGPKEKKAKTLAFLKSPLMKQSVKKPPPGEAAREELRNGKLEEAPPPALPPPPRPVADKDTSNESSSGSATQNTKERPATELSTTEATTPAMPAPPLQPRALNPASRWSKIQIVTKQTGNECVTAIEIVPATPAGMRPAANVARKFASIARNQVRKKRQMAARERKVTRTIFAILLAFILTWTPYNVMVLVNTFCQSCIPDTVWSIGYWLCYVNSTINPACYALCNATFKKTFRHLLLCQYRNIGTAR
Kind of assay: mAChR M4 cell-based functional assay (calcium flux), human M4. The settings on record: Table 10; for EC50: Human M4 EC50 (nM); for Emax: % ACh maximum at 30 μM. In general terms: Calcium assays in cells follow changes in intracellular calcium, usually with a dye or a luminescent sensor.

Where [1] appears, read: calcium flux, PAM activity with EC20 acetylcholine.

Structures can show the parent of a compound that is named as a salt.

Broadly, the EC50 is the concentration needed to bring the measured effect to its halfway point. The term Emax denotes the maximal effect, on the per cent scale that the assay sets. As for `Cc1nc2oc3c(NC4CC4c4ccc(F)c(F)c4)ncnc3c2c(C)c1Cl` (stereo not drawn) [Compound 247, 8-chloro-N-[2-(3,4-difluorophenyl)cyclopropyl]-7,9-dimethyl-pyrido [3′,2′:4,5]furo[3,2-d] pyrimidin-4-amine hydrochloride], the maximum response (Emax) is 70%. Moreover, the EC50 under setting [1] worked out at 7840 nM.
The corresponding values for `Cc1nc2oc3c(NCc4ccc(S(C)(=O)=O)cc4)ncnc3c2c(C)c1Cl` [Compound 248, 8-chloro-7,9-dimethyl-N-[(4-methylsulfonylphenyl)methyl]pyrido[3′,2′:4,5] furo[3,2-d]pyrimidin-4-amine hydrochloride] are 45.5% and 1250 nM.
Take `Cc1nc2oc3c(NCc4ccc(C(C)(C)O)cc4)ncnc3c2c(C)c1Cl` [Compound 251, 2-[4-[[(8-chloro-7,9-dimethyl-pyrido [3′,2′:4,5]furo[3,2-d]pyrimidin-4-yl)amino]methyl]phenyl]propan-2-ol]: the Emax came out at 61.8%. The concentration giving a half-maximal response (EC50) under setting [1] came out at 1160 nM.
In the case of `COc1ccc(CNc2ncnc3c2oc2nc(C)c(Cl)c(C)c23)cc1F` [Compound 253, 8-chloro-N-[(3-fluoro-4-methoxy-phenyl)methyl]-7,9-dimethyl-pyrido [3′,2′:4,5]furo[3,2-d] pyrimidin-4-amine hydrochloride], the Emax is 41.9%. Further, for the setting “unit μM (bounds)”, the EC50 is greater than 10000 nM.
With `Cc1nc2sc3c(N4CCC(F)(F)C4)ncnc3c2c(C)c1Cl` [Compound 255, 8-chloro-4-(3,3-difluoropyrrolidin-1-yl)-7,9-dimethyl-pyrido [3′,2′:4,5]thieno[3,2-d] pyrimidine hydrochloride], the Emax is 73%. Under setting [1], the concentration for a half-maximal effect (EC50) came out at 2340 nM.
In the case of `Cc1nc2sc3c(N4CC5CC5C4)ncnc3c2c(C)c1Cl` (stereo not drawn) [Compound 257, 4-(3-azabicyclo[3.1.0]hexan-3-yl)-8-chloro-7,9-dimethyl-pyrido [3′,2′:4,5]thieno[3,2-d] pyrimidine hydrochloride], the Emax is 64.4%. In addition, under setting [1], the EC50 is 1010 nM.
In the same order, the values of `Cc1nc2sc3c(N4CCC(F)C4)ncnc3c2c(C)c1Cl` (stereo not drawn) [Compound 258, 8-chloro-4-(3-fluoropyrrolidin-1-yl)-7,9-dimethyl-pyrido [3′,2′:4,5]thieno[3,2-d] pyrimidine hydrochloride] are 64.9% and 1510 nM.
As to `Cc1nc2sc3c(N4CC5(COC5)C4)ncnc3c2c(C)c1Cl` [Compound 260, 6-(8-chloro-7,9-dimethyl-pyrido [3′,2′:4,5]thieno[3,2-d]pyrimidin-4-yl)-2-oxa-6-azaspiro[3.3]heptane hydrochloride], the maximum response (Emax) amounted to 70.9%.
As for `Cc1nc2sc3c(N4CC(F)(F)C4)ncnc3c2c(C)c1Cl` [Compound 261, 8-chloro-4-(3,3-difluoroazetidin-1-yl)-7,9-dimethyl-pyrido [3′,2′:4,5]thieno[3,2-d] pyrimidine hydrochloride], the Emax is 76.2%. Besides, under setting [1], the concentration giving a half-maximal response (EC50) is 3920 nM.
For the molecule `Cc1nc2sc3c(N4CC(c5ccncc5)C4)ncnc3c2c(C)c1Cl` [Compound 262, 8-chloro-7,9-dimethyl-4-[3-(4-pyridyl)azetidin-1-yl]pyrido[3′,2′:4,5] thieno[3,2-d]pyrimidine dihydrochloride], the Emax is 83.8%. The half-maximal effective concentration (EC50) under setting [1] is 1520 nM.
The corresponding values for `Cc1nc2sc3c(NC4CN(c5ncc(F)cn5)C4)ncnc3c2c(C)c1Cl` [Compound 263, 8-chloro-N-[1-(5-fluoropyrimidin-2-yl)azetidin-3-yl]-7,9-dimethyl-pyrido[3′,2′:4,5] thieno[3,2-d]pyrimidin-4-amine hydrochloride] are 72.6% and 9520 nM.
Consider `Cc1nc2sc3c(NC4CCC4)ncnc3c2c(C)c1Cl` [Compound 266, 8-chloro-N-cyclobutyl-7,9-dimethyl-pyrido [3′,2′:4,5]thieno[3,2-d] pyrimidin-4-amine hydrochloride], for which the maximum response (Emax) stood at 55.5%. Moreover, the EC50 under setting [1] stood at 1660 nM.
On to `COc1ccc(CNc2ncnc3c2sc2nc(C)c(Cl)c(C)c23)cc1OC` [Compound 267, 8-chloro-N-[(3,4-dimethoxyphenyl)methyl]-7,9-dimethyl-pyrido[3′,2′:4,5]thieno [3,2-d]pyrimidin-4-amine hydrochloride], for which the maximal effect (Emax) is 33.6%. In addition, for the setting “unit μM (bounds)”, the 50% effective concentration (EC50) was greater than 10000 nM.
Turning to `Cc1nc2sc3c(NCc4ccc(-n5ccnc5)cc4)ncnc3c2c(C)c1Cl` [Compound 268, 8-chloro-N-[(4-imidazol-1-ylphenyl)methyl]-7,9-dimethyl-pyrido[3′,2′:4,5] thieno[3,2-d]pyrimidin-4-amine dihydrochloride], the Emax was found to be 31.3%. Further, the concentration for a half-maximal effect (EC50) under setting [1] amounted to 3170 nM.
For `Cc1nc2sc3c(NCc4ccc(CN5CCOCC5)cc4)ncnc3c2c(C)c1Cl` [Compound 269, 8-chloro-7,9-dimethyl-N-[[4-(morpholinomethyl)phenyl]methyl]pyrido [3′,2′:4,5]thieno[3,2-d] pyrimidin-4-amine dihydrochloride], the Emax amounted to 71.2%. Besides, the half-maximal effective concentration (EC50) under setting [1] was 3570 nM.
As to `Cc1nc2sc3c(NCc4ccc5c(c4)CC(C)(C)O5)ncnc3c2c(C)c1Cl` [Compound 270, 8-chloro-N-[(2,2-dimethyl-3H-benzofuran-5-yl)methyl]-7,9-dimethyl-pyrido[3′,2′:4,5]thieno [3,2-d]pyrimidin-4-amine dihydrochloride], the maximum response (Emax) is 22%. The half-maximal effective concentration (EC50) (unit μM (bounds)) was greater than 10000 nM.
In the same order, the values of `Cc1ncc(CNc2ncnc3c2sc2nc(C)c(Cl)c(C)c23)cn1` [Compound 271, 8-chloro-7,9-dimethyl-N-[(2-methylpyrimidin-5-yl)methyl]pyrido [3′,2′:4,5]thieno[3,2-d] pyrimidin-4-amine dihydrochloride] are 74.7% and greater than 10000 nM.
Regarding `Cc1nc2sc3c(NC4CN(c5ncc(C(F)(F)F)cn5)C4)ncnc3c2c(C)c1Cl` [Compound 272, 8-chloro-7,9-dimethyl-N-[1-[5-(trifluoromethyl)pyrimidin-2-yl]azetidin-3-yl]pyrido[3′,2′:4,5] hieno[3,2-d]pyrimidin-4-amine dihydrochloride], the maximal effect (Emax) was 60.6%. In addition, the concentration for a half-maximal effect (EC50) under setting [1] was 3620 nM.
For the molecule `Cc1nc2sc3c(NCC4CCOC4)ncnc3c2c(C)c1Cl` (stereo not drawn) [Compound 273, 8-chloro-7,9-dimethyl-N-(tetrahydrofuran-3-ylmethyl) pyrido[3′,2′:4,5]thieno [3,2-d]pyrimidin-4-amine dihydrochloride], the Emax came out at 59.5%. Under setting [1], the concentration giving a half-maximal response (EC50) was determined as 1840 nM.
On to `Cc1nc2sc3c(NCc4ccc(C5(O)CCC5)cc4)ncnc3c2c(C)c1Cl` [Compound 276, 1-[4-[[(8-chloro-7,9-dimethyl-pyrido [3′,2′:4,5]thieno[3,2-d]pyrimidin-4-yl)amino]methyl]phenyl]cyclobutanol], for which the Emax came out at 45.3%. Moreover, the half-maximal effective concentration (EC50) (unit μM (bounds)) is greater than 10000 nM.
Take `Cc1nc2sc3c(NCc4cccc(C5(O)CCC5)c4)ncnc3c2c(C)c1Cl` [Compound 277, 1-[3-[[(8-chloro-7,9-dimethyl-pyrido [3′,2′:4,5]thieno[3,2-d]pyrimidin-4-yl)amino]methyl]phenyl]cyclobutanol]: the maximum response (Emax) was 70.5%. Under setting [1], the EC50 amounted to 2320 nM.
Consider `Cc1nc2sc3c(NCc4ccc(C(C)(C)O)c(F)c4)ncnc3c2c(C)c1Cl` [Compound 278, 2-[4-[[(8-chloro-7,9-dimethyl-pyrido [3′,2′:4,5]thieno[3,2-d]pyrimidin-4-yl)amino]methyl]-2-fluoro-phenyl] propan-2-ol], for which the maximal response (Emax) was 37%. Moreover, under setting [1], the EC50 worked out at 3800 nM.
Consider `Cc1nc2sc3c(NCc4ccc(C(C)(C)O)cc4F)ncnc3c2c(C)c1Cl` [Compound 279, 2-[4-[[(8-chloro-7,9-dimethyl-pyrido [3′,2′:4,5]thieno[3,2-d]pyrimidin-4-yl)amino]methyl]-3-fluoro-phenyl] propan-2-ol], for which the maximal effect (Emax) is 49.4%. The EC50 under setting [1] is 6020 nM.
Turning to `COc1nnc2sc3c(NCc4ccc(C(C)(C)O)cc4)ncnc3c2c1C` [Compound 280, 2-[4-[[(3-methoxy-4-methyl-pyrimido [4′,5′:4,5]thieno[2,3-c]pyridazin-8-yl)amino]methyl]phenyl]propan-2-ol], the Emax stood at 86.7%.
As for `COc1nnc2sc3c(N4CCCC4)ncnc3c2c1C` [Compound 281, 3-methoxy-4-methyl-8-pyrrolidin-1-yl-pyrimido [4′,5′:4,5]thieno[2,3-c] pyridazine], the Emax was 117%. Under setting [1], the EC50 came to 47.7 nM.
For the molecule `COc1nnc2sc3c(NC4CN(c5ncc(C(F)(F)F)cn5)C4)ncnc3c2c1C` [Compound 282, 3-methoxy-4-methyl-N-[1-[5-(trifluoromethyl)pyrimidin-2-yl]azetidin-3-yl]pyrimido[4′,5′:4,5]thieno [2,3-c]pyridazin-8-amine], the Emax was 90.9%. The half-maximal effective concentration (EC50) under setting [1] is 1140 nM.
The corresponding values for `CCNc1ncnc2c1oc1nc(C)c(Cl)c(C)c12` [Compound 287, 8-chloro-N-ethyl-7,9-dimethyl-pyrido[3′,2′:4,5]furo[3,2-d]pyrimidin-4-amine hydrochloride] are 40.6% and 1250 nM.
In the same order, the values of `Cc1nc2oc3c(NCc4cccc(C(C)(C)O)c4)ncnc3c2c(C)c1Cl` [Compound 288, 2-[3-[[(8-chloro-7,9-dimethyl-pyrido[3′,2′:4,5]furo[3,2-d]pyrimidin-4-yl)amino]methyl]phenyl]propan-2-ol] are 54.4% and 1880 nM.
